Key:
[1] = system: neurons seeded in chip; format: cell-based, human
[2] = system: cell monolayers with tight junctions; settings: cited from earlier work
[3] = system: BMECs seeded on a microfluidic device; assay: Paracellular permeability assay with Dextran-FITC on chip; format: cell-based, human; settings: TNF-alpha exposure; Dextran-FITC 4 KDa added to bottom channel, measured in top channel; FIG. 14B
Excerpt: Brain microvascular endothelial cells (BMECs) constitute the blood-brain barrier (BBB) which forms a dynamic interface between the blood and the central nervous system (CNS) in vivo. This highly specialized interface restricts paracellular diffusion of fluids and solutes including chemicals, toxins and drugs from entering the brain. In this example, fluorescein sodium is used in a paracellular permeability assay of the BMECs seeded on a microfluidic device.
Albumin or Dextran conjugated to a fluorescent probe (e.g., FITC or TRITC) are frequently used to monitor changes in leakage, and thus barrier function. In this case, Dextran-FITC, a green fluorescent molecule of 4 KDa, or sodium fluorescein (a 0.3 KDa molecule), was added to the bottom (“blood side”) channel. Paracellular permeability was calculated by measuring the permeability of the fluorescent molecule on the Top (“brain side”) channel. […] FIG. 14B involves TNF-alpha exposure, but the readout is membrane permeability as measured by Dextran-FITC.

[4] = system: iBMEC barrier function; assay: TEER measurement on prototype TEER chips under flow; format: cell-based, human; settings: chip under flow, then exposure to TNFa; FIG. 14A
Procedure: Cells were plated on tall channel PDMS chips equipped with incorporated gold electrodes on each channel (see FIG. 13A). Post seeding of BMECs, transendothelial electrical resistance was measured by connecting the electrodes to an EVOM2 voltohmmeter (see FIG. 13B). […] The “damaged” chip was a failure due to the TEER-Chips being a prototype.
Higher TEER values generally indicate a tighter barrier, which is typically desirable for a blood-brain barrier.

Molecule: NC1=N[C@H](O)[C@H]2[C@H]3O[C@]4(O)O[C@@H]([C@@H](O)[C@@]2(N1)[C@@H]4O)[C@]3(O)CO [tetrodotoxin]
- neuronal calcium flux activity [1]: ablates this activity

Molecule: Lucifer Yellow
- Permeability (Papp) [2]: 0.5 to 1.2 ×10⁻⁶ cm/s

Molecule: TNFa
- membrane permeability as measured by Dextran-FITC [3]: increase in permeability
- iBMEC barrier function (TEER) after exposure of the chips [4]: weakening of barrier function
